Measurements published in US8927227B2, “Method of measuring effects of components on cell reactive oxygen species production” (Colgate-Palmolive Company, priority 2008, dated 2015).

Test system: Human histocytic lymphoma U937 cells
Test: Intracellular ROS fluorescence assay (DCF-DA / DHR123) in U937 cells exposed to H2O2 and LPS
Assay type: cell-based
Experimental: Human histocytic lymphoma U937 cells (ATCC, Manassas, Va.) were initially cultured in RPMI-1640 media (ATCC, Manassas, Va.) containing 10% serum and 1% penicillin, and then transferred at a concentration of 2×10^5 cells/ml into media containing 1 ng/ml PMA for 48 hours at 37° C. The cells were starved overnight in serum-free culture media before exposure to dye.
Cells were washed with PBS buffer twice, and divided into two sets to be incubated with DCF-DA or DHR123 (Calibochem, La Jolla, Calif.) for 30 minutes at 30° C. Cells are washed with PBS twice to remove residual dye. Appropriate experimental controls are also maintained.
Cells are then divided into several groups, and various amounts of a 1% solution of α-tocopherol (Vitamin E), substance 1, or substance 2 is added to each of the groups, and incubated at 37° C. for 15 minutes. Cells then were washed twice with PBS to remove residual amounts of test compounds. ROS agents H2O2 and LPS then were added and incubated for different periods of time. Fluorescence of the cells then were read at excitation 485 nm and emission 530 nm for up to 5 hours.

Cc1c(C)c2c(c(C)c1O)CC[C@@](C)(CCC[C@H](C)CCC[C@H](C)CCCC(C)C)O2 [α-tocopherol]
reduction of oxidative level (2 ppm active, 2.5 mM hydrogen peroxide, FIG. 2): approximately 30% | capability in scavenging ROS or free radicals (10 ppm and 100 ppm active compared with 2 ppm, 2.5 mM hydrogen peroxide, FIG. 2): did not show enhanced capability in scavenging ROS or free radicals | cell fluorescence versus cells incubated without test compound (two hours of incubation, ROS at 2.5 mM and ROS stimulant, FIG. 1): cells incubated in the absence of a test compound but in the presence of the ROS at 2.5 mM and ROS stimulant fluoresce greater
